Data on 6 molecules can be found in patent US20200256882A1, “FLUID PROPERTY MEASUREMENT DEVICES AND METHODS” (Abram Scientific, Inc., priority 2019, published 2020).

Like-named read-outs stand apart in the source and are kept apart here. Positions of bridges follow the written chain, without caps; N, C: chain ends. Non-standard residues stand in square brackets, D forms with d. Residues, ends and D or L forms follow the SMILES beside them. hArg = N=C(N)NCCCC[C@H](N)C(=O)O; Mpa = O=C(O)CCS

Series [1] has as its system whole blood samples (extrinsic coagulation pathway). Nature of the series: Thromboelastogram (TEG) coagulation test on disposable test strip. The conditions noted are these: for peak / maximum thrombin generation (ThrombinPeak): blood samples with increasing concentrations of the anticoagulant (heparin 0 to 3 IU/ml); for clot formation time (R): blood samples with increasing concentrations of the anticoagulant, FIG. 20(a), 21(a); for clot stiffness G: blood samples with increasing concentrations of the substance (cleavable fibrinogen 42 to 231 mg/dL); for ratio of the normalized ThrombinPeak and clot stiffness G: tested samples with increasing anticoagulant concentrations, FIG. 22(d). It is filed as biochemical. Here is the method: The disposable test strips used in this example were incorporated with a reagent comprising of rabbit brain thromboplastin (Pacific Hemostasis Prothrombin Time reagent, Thromboplastin-DS, Product# 29-227-3), calcium chloride (25 mM) and Tween (2% v/v aqueous solution). Prior to the final assembly of the strip, the reagent was incorporated by dispensing the solution on to the exposed hydrophilic surface in the bottom stack, followed by air-drying in a drying box with humidity control at standard room temperature and pressure. The ratio of the volume of the reagent to blood tested in the chamber was maintained at close to 2:1 to ensure successful initiation of the blood coagulation reaction. […] In this example, venous whole blood and finger-stick, capillary whole blood samples from a normal subject were used. In addition, finger-stick, capillary whole blood samples from patients undergoing warfarin therapy at an anticoagulation clinic were used. Following procurement of informed consent under an Institutional Review Board (IRB) approved protocol, phlebotomy was performed to extract the blood sample by venipuncture and the sample was directly dispensed into blood collection tubes containing sodium citrate anticoagulant. The citrated whole blood samples were contrived in vitro to incorporate varying amounts of unfractionated heparin (0 to 3 IU/ml), cleavable fibrinogen (42 to 231 mg/dL), Eptifibatide (GPIIb/IIIa platelet inhibitor, 0 to 12 μg/mL), and tissue plasminogen activator (tPA, 0 to 1.8 nM). Further in some tests, following procurement of informed consent under an Institutional Review Board (IRB) approved protocol, a standard lancet was used to extract blood samples by finger-stick and a standard microliter pipette or dropper was used to pick up the sample for insertion into the disposable test strip. Lastly, in some tests, blood samples were also tested using 2 Haemonetics' TEG-5000 instruments (2 tests per instrument) and their corresponding TEG curve & parameters were recorded, in order to perform side-by-side comparison with the results generated using the disposable test strips. Results: • In this example, the oscillation characteristics (amplitude and phase) of the in-plane vibration mode of a physical element in single-use disposable test strips were measured as a function of frequency in the vicinity of the resonance frequency, and these amplitude & phase frequency scans were monitored periodically to determine different aspects of the blood coagulation cascade. The blood sample upon entering the chamber reacted with the dried reagent and started to coagulate through the extrinsic coagulation pathway. An example of the amplitude and phase frequency scans of an oscillating physical element in a disposable test strip with a blood sample in the chamber undergoing coagulation is shown in FIGS. 13(a) and 13(b), respectively, wherein the amplitude and phase at the resonance frequency peak are seen to decrease in magnitude as the blood coagulation cascade progresses. These amplitude and phase frequency scans monitored periodically over time were used to perform a Thromboelastogram (TEG) test, wherein a characteristic […] shaped viscoelastic curve and parameters were extracted. The TEG-like viscoelastic parameters extracted were clot formation time (R), activated clotting time (ACT), maximum thrombin generation (ThrombinPeak), clot stiffness (G), platelet contraction rate (Plt-Cont), and fibrinolysis rate (Lys-Rate). A mathematical model of the viscoelastic oscillation damping of the physical element, which incorporated the different kinetic processes in the coagulation cascade, was used to fit to data from the amplitude and phase frequency scans measured as a function of time. […]

How the values of series [2] were obtained: Ethylene glycol solutions were prepared using de-ionized water in varying concentrations ranging from 0 to 40.38% as shown in Table I. The solutions were prepared in 20 ml de-ionized water and corresponding volume of ethylene glycol solutions concentrations. The fluid sample, when introduced into the assembled disposable test strip through the inlet port (i.e. rectangular opening 207 in FIG. 2(a)), wicked into the chamber under the region of the substrate layer leading up to the suspended beam, followed by the fluid flow being directed through the chamber along the beam length while maintaining contact with the underside of the beam (at or slightly beyond its width), and finally, flowing through the chamber under the region of the substrate layer past the beam leading up to the vent port (i.e. rectangular opening 208 in FIG. 2(a)), which permits air to escape from the chamber as it is loaded with the fluid sample.

For series [3], the system named is venous whole blood samples (intrinsic coagulation pathway). Put plainly: Activated partial thromboplastin time (aPTT) coagulation test on disposable test strip. It counts as biochemical. The conditions noted are these: citrated venous whole blood spiked in vitro, 0.0 to 1.0 IU/ml; FIG. 10, R^2=0.92. Here is the method:
The disposable test strips used in this example were incorporated with a reagent comprising of Actin-FS activated partial thromboplastin time reagent (Siemens Diagnostics, Catalog# B4218-20), calcium chloride (25 mM) and Tween (2% v/v aqueous solution). Prior to the final assembly of the strip, the reagent was incorporated by dispensing the solution on to the exposed hydrophilic surface in the bottom stack, followed by air-drying in a drying box with humidity control at standard room temperature and pressure. The ratio of the volume of the reagent to blood tested in the chamber was maintained at close to 2:1 to ensure successful initiation of the blood coagulation reaction. […]
In this example, the oscillation characteristics (e.g., amplitude) of the in-plane mode of a physical element in single-use disposable test strips were monitored and recorded before and after introduction of the blood sample, in order to measure the change in viscosity and viscoelasticity of the blood sample as a function of time as it undergoes coagulation. […] An algorithm was used to track the measured oscillation characteristics, viscosity and/or viscoelasticity as a function of time and identify a time to clot formation (measured starting from blood sample insertion time, t=0), in other words known as the partial thromboplastin time (aPTT). […]

Series [4] shares this test system. Put plainly: Low range activated clotting time (ACT) coagulation test on disposable test strip. It is filed as biochemical. The conditions noted are these: citrated venous whole blood spiked in vitro, 0.0 to 3.0 IU/ml; FIG. 11, R^2=0.99. Here is the method:
(§1) The disposable test strips used in this example were incorporated with a reagent comprising of kaolin suspended in distilled water, calcium chloride (25 mM) and Tween (2% v/v aqueous solution). Prior to the final assembly of the strip, the reagent was incorporated by dispensing the solution on to the exposed hydrophilic surface in the bottom stack, followed by air-drying in a drying box with humidity control at standard room temperature and pressure. […]
(§2) Results: • In this example, the oscillation characteristics (e.g., amplitude) of the in-plane mode of a physical element in single-use disposable test strips were monitored and recorded before and after introduction of the blood sample, in order to measure the change in viscosity and viscoelasticity of the blood sample as a function of time as it undergoes coagulation. […] An algorithm was used to track the measured oscillation characteristics, viscosity and/or viscoelasticity as a function of time and identify a time to clot formation (measured starting from blood sample insertion time, t=0), in other words known as the activated clotting time (ACT). […] In this specific example, the ACT clotting time measured corresponds to a low-range ACT measurement given the system's sensitivity from 0.0 to 3.0 IU/ml, which corresponds to the low range of heparin therapy used during cardiac and hepatic surgeries.

For series [5] the test system is unchanged. Put plainly: High range activated clotting time (ACT) coagulation test on disposable test strip. It is filed as biochemical. The conditions noted are these: citrated venous whole blood spiked in vitro, 1.0 to 5.0 IU/ml; FIG. 12, R^2=0.95. Here is the method:
as §1
as §2, with “high-range” for “low-range”, “1.0” for “0.0”, “5.0” for “3.0”, “high” for “low”

[6] abbreviates: 16.22 % v/v in de-ionized water.
Setting [7] is: 40.38 % v/v in de-ionized water.
Where [8] appears, read: 3 warfarin patient samples, increasing warfarin activity, FIG. 15.

Take `N=C(N)NCCCC[C@@H]1NC(=O)CCSSC[C@@H](C(N)=O)NC(=O)[C@@H]2CCCN2C(=O)[C@H](Cc2c[nH]c3ccccc23)NC(=O)[C@H](CC(=O)O)NC(=O)CNC1=O` [Eptifibatide] ([Mpa][hArg]GDWPC-NH2; disulfide 1-7): in series [1] (blood samples with increasing concentrations, 0 to 12 μg/mL, FIG. 18(b)), the “rate of platelet contraction (Plt-Cont)” value is “decreasing trend”.

On to `OCCO` [Ethylene Glycol, ethylene glycol], for which the Density worked out at 1.035 gm/cc in series [2] (10 % v/v in de-ionized water), 1.052 gm/cc in series [2] (setting [6]), 1.065 gm/cc in series [2] (22.5 % v/v in de-ionized water) and 1.088 gm/cc in series [2] (setting [7]). In addition, the Viscosity worked out at 1.9903 cP in series [2] (10 % v/v in de-ionized water), 2.7938 cP in series [2] (setting [6]), 3.711 cP in series [2] (22.5 % v/v in de-ionized water) and 6.8247 cP in series [2] (setting [7]).

Take `O=C(NC[C@H]1CN(c2ccc(N3CCOCC3=O)cc2)C(=O)O1)c1ccc(Cl)s1` [Rivaroxaban]: in series [1], the “peak / maximum thrombin generation (ThrombinPeak)” value (“peak / maximum thrombin generation” below) is “reducing”; the “clot formation time (R)” value is on record as “increasing linear trend”; the “clot stiffness G” value was “limited to no effect”; the “ratio of the normalized ThrombinPeak and clot stiffness G” value is listed as “decreasing linear trend”.

For `CC(=O)CC(c1ccccc1)c1c(O)c2ccccc2oc1=O` (stereo not shown) [warfarin], the maximum thrombin generation result in series [1] (3 warfarin patient samples, increasing warfarin activity (PT 17.4, 36.4, 54.4 seconds), FIG. 15) is “steady decrease”. In series [1] (setting [8]), the “time to maximum fibrin formation (TMA)” value was “delayed” and the “time to maximum thrombin generation (analogous to the ACT)” value is recorded as “delayed”.

Dabigatran: in series [1], the “peak / maximum thrombin generation” value is recorded as “limited to no effect”; the “clot formation time (R)” value was “increasing linear trend”; the “clot stiffness G” value was “reducing”; the “ratio of the normalized ThrombinPeak and clot stiffness G” value is given as “increasing”.

For heparin, in series [3], the “uncalibrated aPTT clotting time” value is “linear dose response”. Moreover, the “uncalibrated ACT clotting time (low-range)” value in series [4] was “linear dose response”. Moreover, in series [5], the “uncalibrated ACT clotting time (high-range)” value is reported as “linear dose response”. In addition, the “peak / maximum thrombin generation” value in series [1] was “decrease”. Also, the “activated clotting time (ACT), time to peak thrombin generation” value in series [1] (blood samples with increasing heparin concentrations from 0 to 3 IU/ml, FIG. 16) is on record as “increase”.
